Values after ≈ are worked out from the molar mass of the structure shown. Where two headings read alike, the source gives them in different places.
What was measured:
MRSA NRS 70 = test: microbe, parasite or virus in culture; assay type: cell-based, S. aureus; conditions: for MIC: Staphylococcus aureus
E. coli tolc = test: microbe, parasite or virus in culture; assay type: cell-based; conditions: for MIC: Escherichia coli, read-out: MIC E. coli tolc
Acinetobacter = test: microbe, parasite or virus in culture; assay type: cell-based; conditions: for MIC: Acinetobacter, read-out: MIC Acinetobacter
E. faecalis = test: microbe, parasite or virus in culture; assay type: cell-based; conditions: for MIC: Enterococcus faecalis, read-out: MIC E. faecalis
S. aureus (MSSA) = test: microbe, parasite or virus in culture; assay type: cell-based; conditions: for MIC: Staphylococcus aureus, MSSA, read-out: MIC S. aureus (MSSA)
E. coli k12 = test: microbe, parasite or virus in culture; assay type: cell-based; conditions: for MIC: Escherichia coli, K12, read-out: MIC E. coli k12
B. anthracis = test: microbe, parasite or virus in culture; assay type: cell-based, Bacillus anthracis; conditions: for MIC: Bacillus anthracis, read-out: MIC B. anthracis
Mtb H37Rv (ATCC 27294) = test: microbe, parasite or virus in culture; assay type: cell-based, Mycobacterium tuberculosis; conditions: for MIC: Mycobacterium tuberculosis
P. aeruginosa = test: MIC against P. aeruginosa; assay type: cell-based; conditions: Pseudomonas aeruginosa; Table 1
Description: (§1) The following compounds have been synthesized and tested for their activities against bacteria (Table 1) and their abilities to inhibit Dxr (Table 2). MIC is determined as described in Yendapally et al. (Journal of Medicinal Chemistry 2008, 51, 1487); and IC50 is determined as described in Henriksson et al. (Journal of Biological Chemistry 2007, 282, 19905).

S. pneumonia = test: MIC against S. pneumonia; assay type: cell-based; conditions: Table 1
Description: as §1

Klebsiella = test: MIC against Klebsiella; assay type: cell-based; conditions: Table 1
Description: as §1

M. tuberculosis Dxr = M. tuberculosis Dxr (Mycobacterium tuberculosis, UniProt P9WNS1); test: biochemical; conditions: IC50 (μM)
Sequence of M. tuberculosis Dxr (P9WNS1 whole entry, looked up): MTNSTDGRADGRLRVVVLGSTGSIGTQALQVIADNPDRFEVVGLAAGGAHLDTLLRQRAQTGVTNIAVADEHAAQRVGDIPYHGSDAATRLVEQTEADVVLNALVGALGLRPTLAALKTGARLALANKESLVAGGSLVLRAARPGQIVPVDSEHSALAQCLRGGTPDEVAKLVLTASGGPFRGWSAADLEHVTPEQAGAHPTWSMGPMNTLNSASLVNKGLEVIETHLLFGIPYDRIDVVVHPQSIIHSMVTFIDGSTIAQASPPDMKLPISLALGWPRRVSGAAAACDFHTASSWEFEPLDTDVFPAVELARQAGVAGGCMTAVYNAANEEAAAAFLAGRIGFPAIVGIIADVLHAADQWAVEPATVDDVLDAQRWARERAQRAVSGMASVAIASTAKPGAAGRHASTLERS

[1] = read-out: Mtb MIC (ug/mL) (7H9)
[2] = read-out: Mtb MIC (ug/mL) (GAST)
[3] = read-out: MIC M. tuberculosis (H37Rv)

SMILES	MIC (P. aeruginosa) [mg/L]	MIC (MRSA NRS 70; read-out: MIC MRSA NRS 70) [mg/L]	MIC (E. coli tolc) [mg/L]	MIC (S. pneumonia) [mg/L]	MIC (Acinetobacter) [mg/L]	MIC (E. faecalis) [mg/L]	MIC (S. aureus (MSSA)) [mg/L]	MIC (E. coli k12) [mg/L]	MIC (Klebsiella) [mg/L]	MIC (B. anthracis) [mg/L]	MIC (Mtb H37Rv (ATCC 27294); read-out: MIC H37 Rv) [µg/mL]	MIC (Mtb H37Rv (ATCC 27294); read-out: Mtb MIC (ug/mL)) [µg/mL]	other results
CC(=O)N(O)CCCP(=O)(OCC(=O)OC(C)(C)C)OCC(=O)OC(C)(C)C [Compound 23]													MIC S. aureus (MRSA) (MRSA NRS 70): 25 mg/L (≈ 58.8 µM); MIC E. coli tolc (E. coli tolc): >200 mg/L; MIC Acinetobacter (Acinetobacter): >200 mg/L; MIC E. faecalis (E. faecalis): >200 mg/L; MIC S. aureus (MSSA) (S. aureus (MSSA)): 100 mg/L (≈ 235 µM); MIC E. coli k12 (E. coli k12): >200 mg/L; MIC B. anthracis (B. anthracis): >200 mg/L; MIC M. tuberculosis (H37Rv) (Mtb H37Rv (ATCC 27294)): 400 mg/L (≈ 940 µM)
CC(=O)N(O)CCCP(=O)(OCOC(=O)C(C)(C)C)OCOC(=O)C(C)(C)C [Compound 24]													MIC S. aureus (MRSA) (MRSA NRS 70): 50 mg/L (≈ 118 µM); MIC E. coli tolc (E. coli tolc): 100 mg/L (≈ 235 µM); MIC Acinetobacter (Acinetobacter): >200 mg/L; MIC E. faecalis (E. faecalis): >200 mg/L; MIC S. aureus (MSSA) (S. aureus (MSSA)): 100 mg/L (≈ 235 µM); MIC E. coli k12 (E. coli k12): >200 mg/L; MIC B. anthracis (B. anthracis): 200 mg/L (≈ 470 µM); MIC M. tuberculosis (H37Rv) (Mtb H37Rv (ATCC 27294)): 50 to 100 mg/L; antitubercular activity (in words) (Mtb H37Rv (ATCC 27294)): better antitubercular activity
CC(=O)N(O)CCCP(=O)(OC(C)OC(=O)OC(C)(C)C)OC(C)OC(=O)OC(C)(C)C (stereo not drawn) [Compound 25]													MIC S. aureus (MRSA) (MRSA NRS 70): 50 mg/L (≈ 103 µM); MIC E. coli tolc (E. coli tolc): >200 mg/L; MIC Acinetobacter (Acinetobacter): >200 mg/L; MIC E. faecalis (E. faecalis): >200 mg/L; MIC S. aureus (MSSA) (S. aureus (MSSA)): 100 mg/L (≈ 206 µM); MIC E. coli k12 (E. coli k12): >200 mg/L; MIC B. anthracis (B. anthracis): 200 mg/L (≈ 412 µM); MIC M. tuberculosis (H37Rv) (Mtb H37Rv (ATCC 27294)): 400 mg/L (≈ 824 µM)
CC(=O)N(O)CCCP(=O)(OCOC(=O)c1ccccc1)OCOC(=O)c1ccccc1 [Compound 26]													MIC S. aureus (MRSA) (MRSA NRS 70): >200 mg/L; MIC E. coli tolc (E. coli tolc): 50 mg/L (≈ 107 µM); MIC Acinetobacter (Acinetobacter): 200 mg/L (≈ 430 µM); MIC E. faecalis (E. faecalis): >200 mg/L; MIC S. aureus (MSSA) (S. aureus (MSSA)): >200 mg/L; MIC E. coli k12 (E. coli k12): >200 mg/L; MIC B. anthracis (B. anthracis): 100 mg/L (≈ 215 µM); MIC M. tuberculosis (H37Rv) (Mtb H37Rv (ATCC 27294)): 25 to 100 mg/L; antitubercular activity (in words) (Mtb H37Rv (ATCC 27294)): better antitubercular activity
CC(=O)N(O)CCCP(=O)(OC(C)OC(=O)c1ccccc1)OC(C)OC(=O)c1ccccc1 (stereo not drawn) [Compound 27]													MIC S. aureus (MRSA) (MRSA NRS 70): >200 mg/L; MIC E. coli tolc (E. coli tolc): 50 mg/L (≈ 101 µM); MIC Acinetobacter (Acinetobacter): 100 mg/L (≈ 203 µM); MIC E. faecalis (E. faecalis): >200 mg/L; MIC S. aureus (MSSA) (S. aureus (MSSA)): >200 mg/L; MIC E. coli k12 (E. coli k12): 50 mg/L (≈ 101 µM); MIC B. anthracis (B. anthracis): 50 mg/L (≈ 101 µM); MIC M. tuberculosis (H37Rv) (Mtb H37Rv (ATCC 27294)): 100 to 200 mg/L
CCOP(=O)(CCCN(O)C(=O)c1ccccc1)OCC [ERJ 58]	> 200	> 200	> 200	> 200	> 200	> 200	> 200	> 200	> 200	> 200	> 200		MIC (Mtb H37Rv (ATCC 27294); [1]): > 500 µg/mL; MIC (Mtb H37Rv (ATCC 27294); [2]): 31.2 µg/mL (≈ 99.1 µM)
CCOP(=O)(CCCN(O)C(=O)CCc1ccccc1)OCC [ERJ 70]	> 200	> 200	> 200	> 200	> 200	> 200	> 200	> 200	> 200	> 200	> 200		MIC (Mtb H37Rv (ATCC 27294); [1]): 3.12 µg/mL (≈ 9.1 µM); MIC (Mtb H37Rv (ATCC 27294); [2]): > 200 µg/mL
CCOP(=O)(CCCN(O)C(=O)CCCc1ccccc1)OCC [ERJ 79]	> 200	50 (≈ 140 µM)	> 200	> 200	> 200	> 200	100 (≈ 280 µM)	> 200	> 200	> 200	> 200		MIC (Mtb H37Rv (ATCC 27294); [1]): 3.12 µg/mL (≈ 8.74 µM); MIC (Mtb H37Rv (ATCC 27294); [2]): > 200 µg/mL
CCOP(=O)(CCCN(O)C(=O)Cc1ccccc1)OCC [ERJ 91]	> 200	50 (≈ 152 µM)	> 200	> 200	> 200	> 200	100 (≈ 304 µM)	> 200	> 200	> 200	> 200		
CCOP(=O)(CCCN(O)C(=O)c1cccc2ccccc12)OCC [ERJ 93]	> 200	50 (≈ 137 µM)	> 200	> 200	> 200	200 (≈ 547 µM)	100 (≈ 274 µM)	> 200	> 200	200 (≈ 547 µM)	> 200		
CCOP(=O)(CCCN(O)C(=O)c1ccc2ccccc2c1)OCC [ERJ 96]	> 200	> 200	> 200	> 200	> 200	> 200	> 200	> 200	> 200	> 200	> 200		
CCOP(=O)(CCCN(O)C(=O)c1ccc(-c2ccccc2)cc1)OCC [ERJ 104]	> 200	100 (≈ 255 µM)	100 (≈ 255 µM)	> 200	> 200	> 200	100 (≈ 255 µM)	> 200	> 200	> 200	> 200		
CC(=O)N(O)CCCP(=O)(O)O [FR900098, reference compound]			12.5 (≈ 63.4 µM)		50 (≈ 254 µM)	> 200	> 200	200 (≈ 1010 µM)		50 (≈ 254 µM)		> 200	MIC (MRSA NRS 70; read-out: MIC S. aureus (MRSA)): 50 mg/L (≈ 254 µM); IC50 (M. tuberculosis Dxr): 2 µM; antitubercular activity (in words) (Mtb H37Rv (ATCC 27294)): inactive; MIC (Mtb H37Rv (ATCC 27294); [3]): > 500 µg/mL
O=CN(O)CCCP(=O)(O)O [Fosmidomycin, reference compound]			6.25 (≈ 34.1 µM)		100 (≈ 546 µM)	> 200	> 200	12.5 (≈ 68.3 µM)		0.78 (≈ 4.26 µM)			MIC (MRSA NRS 70; read-out: MIC S. aureus (MRSA)): 200 mg/L (≈ 1090 µM); activity against B. anthracis (MIC) (B. anthracis): 0.78 lg/mL; MIC (Mtb H37Rv (ATCC 27294); read-out: MIC 7H9 (μg/mL)): > 500 µg/mL; MIC (Mtb H37Rv (ATCC 27294); read-out: MIC GAST/Fe (μg/mL)): > 500 µg/mL; MIC (Mtb H37Rv (ATCC 27294); [3]): > 500 µg/mL
CCOP(=O)(CCCN(OCc1ccccc1)C(C)=O)OCC [GSJ 20 (Rotamer B)]	> 200	> 200	> 200	> 200	> 200	> 200	> 200	> 200	> 200	> 200	> 200	> 200	
CCOP(=O)(CCCN(OCCc1ccccc1)C(C)=O)OCC [GSJ 25]	> 200	> 200	> 200	> 200	> 200	> 200	> 200	> 200	> 200	> 200	> 200	> 200	
CCOP(=O)(CCCN(OCCCCc1ccccc1)C(C)=O)OCC [GSJ 26]	> 200	200 (≈ 519 µM)	200 (≈ 519 µM)	> 200	> 200	200 (≈ 519 µM)	100 (≈ 259 µM)	> 200	> 200	> 200			MIC H37 Rv (Mtb H37Rv (ATCC 27294)): Some act 200; Mtb MIC (ug/mL) (Mtb H37Rv (ATCC 27294)): SA 200
CCOP(=O)(CCCN(OCCCc1ccccc1)C(C)=O)OCC [GSJ 27]	> 200	> 200	> 200	> 200	> 200	> 200	> 200	> 200	> 200	> 200	> 200	> 200	
CCOP(=O)(CCCN(OC(C)c1ccccc1)C(C)=O)OCC (stereo not drawn) [GSJ 28]	> 200	50 (≈ 140 µM)	> 200	> 200	> 200	> 200	100 (≈ 280 µM)	> 200	> 200	> 200	> 200	> 200	
CCOP(=O)(CCCN(OCCCc1ccc(OC)cc1)C(C)=O)OCC [GSJ 30]	> 200	> 200	> 200	> 200	> 200	> 200	> 200	> 200	> 200	> 200	> 200	> 200	
CCOP(=O)(CCCN(OCCc1ccc(OC)cc1)C(C)=O)OCC [GSJ 31]	> 200	50 (≈ 129 µM)	> 200	> 200	> 200	> 200	200 (≈ 516 µM)	> 200	> 200	> 200	> 200	> 200	
